According to ChEMBL document CHEMBL3045773, “Synthesis and structureactivity relationship of acylthiourea derivatives as inhibitors of microsomal epoxide hydrolase” (Med Chem Res, 2012):

target: T1, Epoxide hydrolase 1 (Homo sapiens, UniProt P07099); assay: Inhibition of microsomal epoxide hydrolase (unknown origin) using 7-(2-(Oxiran-2-yl)ethoxy) Resorufin by fluorometric method
T1 sequence (P07099 whole entry): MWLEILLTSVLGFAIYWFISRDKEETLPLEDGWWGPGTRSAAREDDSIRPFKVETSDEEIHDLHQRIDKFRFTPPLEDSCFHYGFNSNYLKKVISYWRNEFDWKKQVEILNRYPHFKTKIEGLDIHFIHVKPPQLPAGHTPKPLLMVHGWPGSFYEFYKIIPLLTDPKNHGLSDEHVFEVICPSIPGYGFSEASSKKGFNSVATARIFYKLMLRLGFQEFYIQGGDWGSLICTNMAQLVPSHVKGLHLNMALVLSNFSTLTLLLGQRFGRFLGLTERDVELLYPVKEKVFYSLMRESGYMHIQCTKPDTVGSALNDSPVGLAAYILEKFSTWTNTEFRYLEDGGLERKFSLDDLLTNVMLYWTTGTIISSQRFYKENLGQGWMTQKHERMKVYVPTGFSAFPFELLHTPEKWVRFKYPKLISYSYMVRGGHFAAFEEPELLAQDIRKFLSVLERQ

Q: How did the IC50 turn out when `O=C(NC(=S)Nc1ccc(Br)c2ccccc12)c1ccccc1` was run?
A: 1880 nM

Q: How did the IC50 turn out when `CC(=O)NC(=S)NC12CC3CC(CC(C3)C1)C2` was run?
A: 1120 nM

Q: With `CC(C)(C)NC(=S)NC(=O)c1ccccc1` as the compound, how does the IC50 read?
A: 1580 nM

Q: Which IC50 does the source give for `CC(=O)NC(=S)Nc1ccc(Br)c(C(F)(F)F)c1` here?
A: 1390 nM

Q: For `CCOc1ccc(OCC)c(NC(=S)NC(C)=O)c1`, which IC50 is on record?
A: 2530 nM

Q: For `CC(=O)NC(=S)Nc1ccc(Br)c2ccccc12`, which IC50 is on record?
A: 2420 nM

Q: With `CC(=O)NC(=S)NC(C)(C)C` as the compound, how does the IC50 read?
A: 2700 nM

Q: `O=C(NC(=S)Nc1ccc(Br)c(C(F)(F)F)c1)c1ccccc1` was tested. Which IC50 did it give?
A: 1170 nM

Q: For `CC(=O)NC(=S)Nc1ccccc1C`, which IC50 is on record?
A: 1500 nM

Q: How did the IC50 turn out when `COc1cc([N+](=O)[O-])ccc1NC(=S)NC(=O)c1ccccc1` was run?
A: 1650 nM

Q: Which IC50 does the source give for `CC(=O)NC(=S)Nc1ccc(Oc2ccccc2)cc1` here?
A: 3700 nM

Q: How did the IC50 turn out when `O=C(NC(=S)Nc1ccc(Cl)cc1)c1ccccc1` was run?
A: 1640 nM

Q: `O=C(NC(=S)Nc1ccccc1)c1ccccc1` [N-(PHENYLCARBAMOTHIOYL)BENZAMIDE] was tested. Which IC50 did it give?
A: 1290 nM

Q: `O=C(NC(=S)Nc1ccc(Br)cc1)c1ccccc1` was tested. Which IC50 did it give?
A: 3440 nM

Q: `COc1cc([N+](=O)[O-])ccc1NC(=S)NC(C)=O` was tested. Which IC50 did it give?
A: 1870 nM

Q: For `CC(=O)NC(=S)Nc1ccc(Cl)cc1`, which IC50 is on record?
A: 2210 nM

Q: `O=C(NC(=S)Nc1ccc(Oc2ccccc2)cc1)c1ccccc1` was tested. Which IC50 did it give?
A: 2100 nM

Q: With `CC(=O)NC(=S)Nc1ccncc1` as the compound, how does the IC50 read?
A: 2070 nM

Q: With `CCOc1ccc(OCC)c(NC(=S)NC(=O)c2ccccc2)c1` as the compound, how does the IC50 read?
A: 2040 nM

Q: How did the IC50 turn out when `Cc1ccccc1NC(=S)NC(=O)c1ccccc1` was run?
A: 3540 nM

Q: How did the IC50 turn out when `O=C(Nc1ccccc1)Nc1ccccc1` was run?
A: 1200 nM

Q: Which IC50 does the source give for `O=C(NC(=S)Nc1cc(Cl)ccc1Cl)c1ccccc1` here?
A: 2150 nM

Q: How did the IC50 turn out when `CC(=O)NC(=S)Nc1ccccc1` [N-(PHENYLCARBAMOTHIOYL)ACETAMIDE] was run?
A: 2350 nM

Q: How did the IC50 turn out when `O=C(NC(=S)Nc1ccc(N2CCOCC2)cc1)c1ccccc1` was run?
A: 1720 nM

Q: `CC(=O)NC(=S)Nc1ccc(N2CCOCC2)cc1` was tested. Which IC50 did it give?
A: 2590 nM

Q: Which IC50 does the source give for `COc1cc(C)ccc1NC(=S)NC(C)=O` here?
A: 1690 nM

Q: `CC(=O)NC(=S)Nc1cc(Cl)ccc1Cl` was tested. Which IC50 did it give?
A: 2290 nM

Q: Which IC50 does the source give for `O=C(NC(=S)Nc1ccncc1)c1ccccc1` here?
A: 2280 nM

Q: How did the IC50 turn out when `COc1cc(C)ccc1NC(=S)NC(=O)c1ccccc1` was run?
A: 2540 nM

Q: Which IC50 does the source give for `CC(=O)NC(=S)Nc1ccc(Br)cc1` here?
A: 1640 nM

Q: How did the IC50 turn out when `O=C(NC(=S)NC12CC3CC(CC(C3)C1)C2)c1ccccc1` was run?
A: 1010 nM
